This experiment concerns the target Thrombospondin-1 (Homo sapiens, UniProt P07996). The experiment can be described thus: TSP1 inhibitory activity. The protocol: As referred to herein, the TSP1 inhibitory activity refers to the activity to inhibit one or more effects of TSP1, including angiostatic effect. The TSP1 inhibitory activity is measured by a cell adhesion inhibition assay using human TSP1 and vascular endothelial cells as described hereinbelow in the Examples section. In this assay, when the 50% inhibitory concentration (IC5O) of a test substance is 200 nM or less, the test substance is determined to have TSP1 inhibitory activity.

Drawing on BindingDB's records for patent US11149066 (Daiichi Sankyo, 2021), this text covers Kd for one molecule.

Each structure is given as a SMILES string. Positions of bridges follow the written chain, without caps; N, C: chain ends. Residues, ends and D or L forms follow the SMILES beside them.

The term Kd denotes the equilibrium constant for the complex coming apart.

Thrombospondin-1, sequence (P07996 whole entry): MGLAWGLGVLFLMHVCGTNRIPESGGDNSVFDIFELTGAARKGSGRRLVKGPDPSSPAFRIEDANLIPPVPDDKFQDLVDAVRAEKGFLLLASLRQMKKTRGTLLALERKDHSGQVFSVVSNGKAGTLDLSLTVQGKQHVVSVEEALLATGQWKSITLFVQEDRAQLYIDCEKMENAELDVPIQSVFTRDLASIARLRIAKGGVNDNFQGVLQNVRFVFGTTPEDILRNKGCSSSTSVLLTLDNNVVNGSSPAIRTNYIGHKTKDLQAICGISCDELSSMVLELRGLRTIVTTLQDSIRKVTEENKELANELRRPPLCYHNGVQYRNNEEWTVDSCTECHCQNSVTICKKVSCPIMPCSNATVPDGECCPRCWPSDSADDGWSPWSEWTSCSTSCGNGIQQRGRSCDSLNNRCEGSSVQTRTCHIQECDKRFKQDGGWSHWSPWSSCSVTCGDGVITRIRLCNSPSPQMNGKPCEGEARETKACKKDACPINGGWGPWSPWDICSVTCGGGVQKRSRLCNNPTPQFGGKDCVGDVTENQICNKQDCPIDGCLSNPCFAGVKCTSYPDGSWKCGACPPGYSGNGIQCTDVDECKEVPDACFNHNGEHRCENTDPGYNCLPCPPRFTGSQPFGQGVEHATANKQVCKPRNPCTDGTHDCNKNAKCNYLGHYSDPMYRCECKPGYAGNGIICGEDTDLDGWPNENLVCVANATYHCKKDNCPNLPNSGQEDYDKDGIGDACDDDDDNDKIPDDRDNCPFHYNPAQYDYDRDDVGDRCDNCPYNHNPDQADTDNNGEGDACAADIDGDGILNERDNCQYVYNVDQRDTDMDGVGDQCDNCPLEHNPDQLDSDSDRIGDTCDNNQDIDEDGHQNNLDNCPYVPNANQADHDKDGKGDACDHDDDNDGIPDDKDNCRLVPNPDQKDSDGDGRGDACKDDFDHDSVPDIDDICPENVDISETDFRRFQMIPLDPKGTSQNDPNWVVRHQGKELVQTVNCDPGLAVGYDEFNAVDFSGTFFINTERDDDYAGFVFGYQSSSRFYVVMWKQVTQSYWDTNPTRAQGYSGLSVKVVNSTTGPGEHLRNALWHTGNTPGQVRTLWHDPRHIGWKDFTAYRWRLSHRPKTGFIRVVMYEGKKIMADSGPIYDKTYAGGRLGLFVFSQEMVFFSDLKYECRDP

`CC[C@H](C)[C@@H]1NC(=O)[C@H](Cc2ccccc2)NC(=O)CSC[C@@H](C(N)=O)NC(=O)[C@H](C(C)C)NC(=O)[C@H](Cc2c[nH]c3ccccc23)NC(=O)[C@H](CCCNC(=N)N)NC(=O)[C@H](C(C)C)NC(=O)[C@H](Cc2c[nH]c3ccccc23)NC(=O)[C@H](CC(N)=O)NC(=O)[C@H](CCCCN)NC(=O)CNC(=O)[C@H](CO)NC1=O` [US11149066, Compound 10] ({CH2CO}-FISGKNWVRWVC-NH2; thioether N-12) registered a Kd of 0.091 nM.
